Experimental data reported in patent US10570117B2, “Phenylimidazole compound” (Otsuka Pharmaceutical Factory, Inc., priority 2015, dated 2020).
Values after ≈ are worked out from the molar mass of the structure shown. Like-named read-outs stand apart in the source and are kept apart here.

Columns and labels:
[1] = Solubility in gastric juice or intestinal juice model fluid (precipitation method using DMSO); type: physicochemical; conditions: room temperature
Procedure: Solubility in Gastric Juice or Intestinal Juice Model Fluid
Measurement was performed by a precipitation method using DMSO. Specifically, each of the dimethyl sulfoxide (DMSO) solutions of the compounds was individually added to 1st fluid for Disintegration Test of Japanese Pharmacopoeia (pH: 1.2) or 2nd fluid for Disintegration Test of Japanese Pharmacopoeia (pH: 6.8), and the mixtures were stirred by shaking at room temperature for 24 hours. Subsequently, insoluble substances in each mixture were removed by filtration, and the UV absorption of each filtrate was measured. The obtained values were individually applied to the calibration curves of the compounds prepared in advance to calculate the concentrations of the compounds dissolved (μg/mL).

[2] = pH 1.2, simulated gastric fluid, kinetic from dmso stock, 1st fluid for Disintegration Test of Japanese Pharmacopoeia (pH: 1.2), read-out: Solubility (μg/mL) 1st fluid
[3] = pH 6.8, kinetic from dmso stock, 2nd fluid for Disintegration Test of Japanese Pharmacopoeia (pH: 6.8), read-out: Solubility (μg/mL) 2nd fluid

melting point	solubility at 24 h [1, 2] [µg/mL]	solubility at 24 h [1, 3] [µg/mL]	Solubility (μg/mL) 1st fluid ([1]; 1st fluid for Disintegration Test of Japanese Pharmacopoeia (pH: 1.2), 24 hours) [µg/mL]	Solubility (μg/mL) 2nd fluid ([1]; 2nd fluid for Disintegration Test of Japanese Pharmacopoeia (pH: 6.8), 24 hours) [µg/mL]	Compound
134 to 136 °C	24.7 (≈ 46 µM)	0.4 (≈ 0.744 µM)			COc1cc(OCc2ccc(C(F)(F)F)nc2)ccc1-c1c(Br)nc(-c2ccc(F)nc2)n1C [Example 305]
235 to 239 °C (dec.)	8.8 (≈ 21.1 µM)	1.1 (≈ 2.63 µM)			COc1cc(OCc2cccc(C#N)n2)ccc1-c1c[nH]c(-c2ccc(Cl)nc2)n1 [Example 60]
201 to 203 °C (dec.)	85.4 (≈ 194 µM)	1 (≈ 2.27 µM)			COc1cc(-c2c[nH]c(-c3ccc(C)nc3)n2)ccc1OCc1ccc(C(F)(F)F)cn1 [Example 85]
144 to 154 °C	96 (≈ 183 µM)	4.2 (≈ 8.03 µM)			COc1cc(OCc2ncccc2C(F)(F)F)ccc1-c1[nH]c(-c2ccc(F)nc2)nc1Br [Example 275]
226 to 230 °C	37.1 (≈ 81.7 µM)	1.3 (≈ 2.86 µM)			COc1cc(OCc2ccc(Br)cc2F)ccc1-c1c[nH]c(-c2ccncc2)n1 [Example 98]
172 to 176 °C	7.1 (≈ 15 µM)	5.6 (≈ 11.9 µM)			COc1cc(OCc2ccc(Br)cc2F)ccc1-c1c[nH]c(-c2ccc(F)nc2)n1 [Example 126]
> 250 °C	> 101	1.3 (≈ 2.78 µM)			COc1cc(-c2c[nH]c(C3CCC(F)(F)CC3)n2)ccc1OCc1ccc(C(F)(F)F)cn1 [Example 62]
218 to 220 °C (dec.)	73.5 (≈ 157 µM)	< 0.3			COc1cc(OCc2ccc(Br)cc2F)ccc1-c1c[nH]c(-c2ccc(C)nc2)n1 [Example 86]
172 to 174 °C	89.1 (≈ 183 µM)	0.4 (≈ 0.82 µM)			COc1cc(OCc2ccc(C(F)(F)F)nc2)ccc1-c1[nH]c(C2CCC(F)(F)C2)nc1Cl (stereo not drawn) [Example 180]
155 to 159 °C	10.8 (≈ 21.1 µM)	2.2 (≈ 4.31 µM)			COc1cc(OC(C)c2ncc(C(F)(F)F)cc2F)ccc1-c1[nH]c(-c2ccc(F)nc2)nc1Cl (stereo not drawn) [Example 289]
186 to 190 °C	> 95	< 0.3			COc1cc(OCc2ccc(C(F)(F)F)cn2)ccc1-c1cn(C)c(-c2ccc(Cl)nc2)n1 [Example 168]
209 to 217 °C	93.5 (≈ 193 µM)	0.4 (≈ 0.827 µM)			COc1cc(-c2c[nH]c(C34CC5CC(CC(C5)C3)C4)n2)ccc1OCc1ccc(C(F)(F)F)cn1 [Example 67]
183 to 186 °C	< 8.5	1 (≈ 2.17 µM)			COc1cc(-c2c[nH]c(C3CCCCC3)n2)cc(OC)c1OCc1ccc(C(F)(F)F)cn1 [Example 76]
143 to 146 °C	42.8 (≈ 94.2 µM)	0.6 (≈ 1.32 µM)			COc1cc(OCc2ccc(Br)cc2F)ccc1-c1c[nH]c(-c2ccccn2)n1 [Example 91]
160 to 161 °C	96.3 (≈ 191 µM)	5.8 (≈ 11.5 µM)			COc1cc(OCc2ncccc2C#N)ccc1-c1[nH]c(C2CCC(F)(F)CC2)nc1Br [Example 184]
136 to 138 °C	> 94	4 (≈ 8.47 µM)			COc1cc(OCc2ccc(C(F)(F)F)cn2)ccc1-c1c(C)nc(-c2ccc(F)nc2)n1C [Example 159]
165 to 168 °C			12 (≈ 24.3 µM)	<0.4	COc1cc(OC(C)c2ccc(C(F)(F)F)cn2)ccc1-c1[nH]c(-c2ccc(F)nc2)nc1Cl (stereo not drawn) [Example 240]
176 to 178 °C	> 105	< 0.4			COc1cc(OCc2ccc(C(F)(F)F)cn2)ccc1-c1nc(-c2ccc(F)nc2)[nH]c1Br [Example 223]
207 to 210 °C	> 83	20.6 (≈ 49.3 µM)			COc1cc(-c2c[nH]c(C3CCCC3)n2)ccc1OCc1ccc(C(F)(F)F)cn1 [Example 78]
62 to 73 °C	> 86	4.6 (≈ 10.7 µM)			COc1cc(OCc2ccc(C(F)(F)F)nc2)ccc1-c1c[nH]c(C2CCCCC2)n1 [Example 53]
216 to 217 °C	5.6 (≈ 12.2 µM)	0.6 (≈ 1.3 µM)			COc1cc(OCc2cc(C(F)(F)F)ccn2)ccc1-c1c[nH]c(-c2ccc(Cl)nc2)n1 [Example 37]
214 to 216 °C	54.1 (≈ 127 µM)	0.5 (≈ 1.17 µM)			COc1cc(OCc2ccc(C(F)(F)F)cn2)ccc1-c1c[nH]c(-c2ccccn2)n1 [Example 88]
135 to 145 °C	78.7 (≈ 182 µM)	5.8 (≈ 13.4 µM)			COc1cc(-c2c[nH]c(C3CCCCC3)n2)ccc1OCc1ccc(C(F)(F)F)cn1 [Example 81]

melting point	solubility at 24 h [1, 2] [µg/mL]	solubility at 24 h [1, 3] [µg/mL]	Solubility (μg/mL) 1st fluid ([1]; 1st fluid for Disintegration Test of Japanese Pharmacopoeia (pH: 1.2), 24 hours) [µg/mL]	Solubility (μg/mL) 2nd fluid ([1]; 2nd fluid for Disintegration Test of Japanese Pharmacopoeia (pH: 6.8), 24 hours) [µg/mL]	Compound
159 to 161 °C	5.3 (≈ 10.9 µM)	1.3 (≈ 2.67 µM)			COc1cc(-c2c[nH]c(C3CCC(C(C)(C)C)CC3)n2)ccc1OCc1ccc(C(F)(F)F)cn1 (stereo not drawn) [Example 69]
142 to 144 °C	23.6 (≈ 47.9 µM)	< 0.4			COc1cc(OCc2ccc(C(F)(F)F)cn2)ccc1-c1c(Cl)nc(-c2ccc(F)nc2)n1C [Example 312]
68 to 79 °C	44.7 (≈ 113 µM)	5.2 (≈ 13.2 µM)			COc1cc(-c2c[nH]c(-c3ccc(F)nc3)n2)ccc1OCc1ncccc1F [Example 119]
137 to 146 °C	< 0.3	29.9 (≈ 60.8 µM)			COc1cc(OC(C)c2ccc(C(F)(F)F)cc2)ccc1-c1[nH]c(-c2ccc(F)nc2)nc1Cl (stereo not drawn) [Example 236]
116 to 131 °C	90.2 (≈ 176 µM)	11.7 (≈ 22.8 µM)			COc1cc(OCc2ncc(C(F)(F)F)cc2F)ccc1-c1[nH]c(-c2ccc(Cl)nc2)nc1Cl [Example 245]
175 to 178 °C	22.6 (≈ 43.8 µM)	0.6 (≈ 1.16 µM)			COc1cc(OCc2ccc(C(F)(F)F)nc2)c(C)cc1-c1[nH]c(C2CCC(F)(F)CC2)nc1Cl [Example 192]
155 to 168 °C (dec.)	82.2 (≈ 165 µM)	12.5 (≈ 25.1 µM)			COc1cc(-c2c[nH]c(C3CCC(F)(F)CC3)n2)cc(OC)c1OCc1ccc(C(F)(F)F)cn1 [Example 63]
138 to 140 °C	5.6 (≈ 11.4 µM)	< 0.4			COc1cc(OCc2ccc(C(F)(F)F)nc2)ccc1-c1c(Cl)nc(-c2ccc(F)nc2)n1C [Example 311]
210 to 212 °C (dec.)	39.9 (≈ 89.8 µM)	36.1 (≈ 81.2 µM)			COc1cc(OCc2cncc(C(F)(F)F)c2)ccc1-c1cnc(-c2ccc(F)nc2)[nH]1 [Example 137]
228 to 230 °C (dec.)	24 (≈ 50.5 µM)	0.6 (≈ 1.26 µM)			COc1cc(-c2nc(-c3ccc(Cl)nc3)[nH]c2C)ccc1OCc1ccc(C(F)(F)F)cn1 [Example 30]
195 to 196 °C	75.6 (≈ 135 µM)	< 0.4			COc1cc(OCc2ccc(C(F)(F)F)nc2)c(C)cc1-c1[nH]c(C2CCC(F)(F)CC2)nc1Br [Example 187]
144 to 146 °C	24.1 (≈ 54.2 µM)	< 1.6			COc1cc(-c2cnc(-c3ccc(F)nc3)[nH]2)ccc1OCc1ccc(C(F)(F)F)nc1 [Example 116]
172 to 175 °C	> 73	4 (≈ 10.9 µM)			COc1cc(OCn2cccn2)ccc1-c1c[nH]c(-c2ccc(F)nc2)n1 [Example 120]
130 to 131 °C	> 88	25.7 (≈ 58.7 µM)			COc1cc(OCc2coc(C)n2)ccc1-c1[nH]c(C2CCC(F)(F)CC2)nc1Cl [Example 197]
157 to 160 °C	27.8 (≈ 66.6 µM)	2.9 (≈ 6.95 µM)			COc1cc(OCc2ccc(Br)cc2F)ccc1-c1c[nH]c(C2CC2)n1 [Example 83]
176 to 178 °C	8.7 (≈ 19.6 µM)	1.3 (≈ 2.93 µM)			COc1cc(OCc2ccc(C(F)(F)F)nc2)ccc1-c1c[nH]c(-c2ccc(F)cn2)n1 [Example 26]
125 to 135 °C	15.5 (≈ 35 µM)	2 (≈ 4.51 µM)			COc1cc(OCc2ccc(C(F)(F)F)cc2)ccc1-c1cnc(-c2ccc(F)nc2)[nH]1 [Example 115]
69 to 89 °C	84 (≈ 198 µM)	40.2 (≈ 94.7 µM)			COc1cc(OCc2ncccc2C#N)ccc1-c1cnc(C2CCC(F)(F)CC2)[nH]1 [Example 7]
167 to 169 °C	86.6 (≈ 197 µM)	0.9 (≈ 2.05 µM)			COc1cc(OCc2ccc(C(F)(F)F)nc2)ccc1-c1cnc(C2CC(F)(F)C2)[nH]1 [Example 4]
168 to 171 °C	7.7 (≈ 16.2 µM)	1.6 (≈ 3.37 µM)			COc1cc(-c2nc(-c3ccc(Cl)cn3)[nH]c2C)ccc1OCc1ccc(C(F)(F)F)cn1 [Example 31]
219 to 225 °C	27.6 (≈ 56.4 µM)	< 0.3			COc1cc(OCc2ncc(Br)cc2F)ccc1-c1cnc(-c2ccc(Cl)nc2)[nH]1 [Example 105]
195 to 197 °C	83.6 (≈ 197 µM)	< 0.3			COc1cc(OCc2cccc(C#N)n2)ccc1-c1cnc(C2CCC(F)(F)CC2)[nH]1 [Example 8]
190 to 193 °C	15.6 (≈ 30.7 µM)	5 (≈ 9.85 µM)			COc1cc(OCc2ncc(F)cc2F)ccc1-c1[nH]c(-c2ccc(Cl)nc2)nc1Br [Example 246]
